The values that follow come from US9828379B2 (priority 2013, dated 2017).

Test [1] concerns the target T1, ABHD6 (Mus musculus, UniProt Q8R2Y0).
T1 sequence (Q8R2Y0 1-336): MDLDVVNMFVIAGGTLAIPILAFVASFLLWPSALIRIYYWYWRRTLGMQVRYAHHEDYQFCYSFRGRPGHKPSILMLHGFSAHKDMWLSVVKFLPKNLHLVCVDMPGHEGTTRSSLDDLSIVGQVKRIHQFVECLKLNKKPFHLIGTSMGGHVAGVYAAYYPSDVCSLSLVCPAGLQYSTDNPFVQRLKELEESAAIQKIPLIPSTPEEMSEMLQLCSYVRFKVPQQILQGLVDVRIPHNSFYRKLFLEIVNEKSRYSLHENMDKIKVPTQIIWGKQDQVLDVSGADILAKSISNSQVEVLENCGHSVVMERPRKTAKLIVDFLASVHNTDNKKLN
Kind of test: biochemical. Conditions: in vitro competitive ABPP.

In test [2] the target is T2, FAAH (Mus musculus, UniProt O08914).
T2 sequence (O08914 1-579): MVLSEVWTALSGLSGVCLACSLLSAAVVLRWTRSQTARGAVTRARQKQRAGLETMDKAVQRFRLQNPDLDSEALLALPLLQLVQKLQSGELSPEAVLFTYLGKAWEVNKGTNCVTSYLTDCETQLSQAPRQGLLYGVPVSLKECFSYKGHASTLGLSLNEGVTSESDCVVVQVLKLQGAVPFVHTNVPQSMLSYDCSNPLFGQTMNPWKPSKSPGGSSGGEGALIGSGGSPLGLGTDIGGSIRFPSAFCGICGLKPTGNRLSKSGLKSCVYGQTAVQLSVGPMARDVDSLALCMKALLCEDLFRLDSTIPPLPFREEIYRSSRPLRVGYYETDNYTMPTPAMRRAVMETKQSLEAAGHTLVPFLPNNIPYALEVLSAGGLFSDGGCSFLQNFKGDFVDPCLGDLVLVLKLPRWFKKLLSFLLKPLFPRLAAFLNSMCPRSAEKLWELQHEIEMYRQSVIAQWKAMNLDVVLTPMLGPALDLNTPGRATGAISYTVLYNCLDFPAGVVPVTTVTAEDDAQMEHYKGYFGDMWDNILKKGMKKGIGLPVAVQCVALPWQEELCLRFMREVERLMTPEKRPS
Kind of test: biochemical. Conditions: in vitro competitive ABPP.

In test [3] the target is T3, MAGL (Mus musculus, UniProt O35678).
T3 sequence (O35678 1-303): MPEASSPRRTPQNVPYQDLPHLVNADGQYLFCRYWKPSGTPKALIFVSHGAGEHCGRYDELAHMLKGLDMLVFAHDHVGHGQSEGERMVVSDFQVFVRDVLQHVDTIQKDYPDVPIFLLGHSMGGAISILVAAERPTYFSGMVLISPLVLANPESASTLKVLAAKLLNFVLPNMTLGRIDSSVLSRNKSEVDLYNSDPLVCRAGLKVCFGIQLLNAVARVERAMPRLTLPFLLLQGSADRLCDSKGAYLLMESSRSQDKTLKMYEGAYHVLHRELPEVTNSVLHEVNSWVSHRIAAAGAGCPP
The test is described as follows: biochemical. Conditions: mouse; in vitro competitive ABPP; read-out: Mouse (IC50 value, nM) MAGL.

Test [4] concerns the target T3, MAGL. The test is described as follows: In vitro competitive activity-based protein profiling (Table 2, % inhibition at 1 μM). It counts as biochemical. The note with it: read-out: % Inhibition at 1 μM MAGL. As to the method: After 30 min, FP—Rh (1.0 μL, 50 μM in DMSO) was added and the mixture was incubated for another 30 min at 37° C. Reactions were quenched with SDS loading buffer (50 μL-4×) and run on SDS-PAGE.
Cell lysates were diluted with mock proteomes for use in competitive ABPP experiments.

The target of test [5] is T1, ABHD6. The description is as above. The note with it: read-out: % Inhibition at 1 μM ABHD6. It counts as biochemical.
For test [6], the target named is T2, FAAH. The test is described as above. It counts as biochemical. Conditions: read-out: % Inhibition at 1 μM FAAH.

As usually defined, the IC50 is the midpoint of a concentration-inhibition curve. Broadly, the inhibition is the percentage by which the read-out fell short of the control. As for `CCn1ncc(CN2CC3CN(C(=O)OC(C(F)(F)F)C(F)(F)F)CC3C2)c1C(=O)NCc1ccccc1` (stereo not drawn) [Example 75, 1,1,1,3,3,3-Hexafluoropropan-2-yl 5-((5-(benzylcarbamoyl)-1-ethyl-1H-pyrazol-4-yl)methyl)hexahydropyrrolo[3,4-c]pyrrole-2(1H)-carboxylate], the IC50 was 100 to 1000 nM on ABHD6 [1], 1000 to 10000 nM at FAAH [2] and less than 100 nM on MAGL [3]. The inhibition at 1 µM at MAGL [4] is greater than 75%; on ABHD6 [5], greater than 75%; at FAAH [6], less than 25%.
Turning to `CC(C)c1ccc(CN2CC3CN(C(=O)OC(C(F)(F)F)C(F)(F)F)CC3C2)c(N2CCCC2)c1` (stereo not drawn) [Example 23, 1,1,1,3,3,3-Hexafluoropropan-2-yl 5-[[4-(propan-2-yl)-2-(pyrrolidin-1-yl)phenyl]methyl]-octahydropyrrolo[3,4-c]pyrrole-2-carboxylate], the values for the IC50 on ABHD6 [1], at FAAH [2] and on MAGL [3] were 1000 to 10000 nM, 1000 to 10000 nM and 100 to 1000 nM, respectively. The inhibition at 1 µM is greater than 75% on MAGL [4], less than 25% at ABHD6 [5] and less than 25% on FAAH [6].
With `O=C(ON1C(=O)CCC1=O)N1CC2CN(Cc3ccc(N4CCOCC4)cc3OC(F)(F)F)CC2C1` (stereo not drawn) [Example 86, 2,5-Dioxopyrrolidin-1-yl 5-[[4-(morpholin-4-yl)-2-(trifluoromethoxy)phenyl]methyl]-octahydropyrrolo[3,4-c]pyrrole-2-carboxylate], the concentration for half-maximal inhibition (IC50) on ABHD6 [1] lay within 1000 to 10000 nM; at FAAH [2], 1000 to 10000 nM; at MAGL [3], 100 to 1000 nM. Besides, the inhibition at 1 µM at MAGL [4] is greater than 75%; on ABHD6 [5], less than 25%; at FAAH [6], 25 to 75%.
`Cc1c(CN2CC3CN(C(=O)OC(C(F)(F)F)C(F)(F)F)CC3C2)cccc1N1CCN(C)CC1` (stereo not drawn) [Example 154, 1,1,1,3,3,3-hexafluoropropan-2-yl 5-[[2-methyl-3-(4-methylpiperazin-1-yl)phenyl]methyl]-octahydropyrrolo[3,4-c]pyrrole-2-carboxylate]: the IC50 is 1000 to 10000 nM on ABHD6 [1], greater than 10000 nM at FAAH [2] and 100 to 1000 nM at MAGL [3]. The inhibition at 1 µM was greater than 75% on MAGL [4], less than 25% on ABHD6 [5] and less than 25% on FAAH [6].
As for `CCn1ncc(CN2CC3CN(C(=O)OC(C(F)(F)F)C(F)(F)F)CC3C2)c1C(=O)N1CCOCC1` (stereo not drawn) [Example 73, 1,1,1,3,3,3-Hexafluoropropan-2-yl 5-((1-ethyl-5-(morpholine-4-carbonyl)-1H-pyrazol-4-yl)methyl)hexahydropyrrolo[3,4-c]pyrrole-2(1H)-carboxylate], the values for the IC50 at ABHD6 [1], on FAAH [2] and at MAGL [3] were greater than 10000 nM, greater than 10000 nM and 100 to 1000 nM, respectively.
Consider `CS(=O)(=O)NC1CCN(c2ccc(Cl)cc2CN2CC3CN(C(=O)OC(C(F)(F)F)C(F)(F)F)CC3C2)CC1` (stereo not drawn) [Example 6, 1,1,1,3,3,3-Hexafluoropropan-2-yl 5-(5-chloro-2-(4-(methylsulfonamido)piperidin-1-yl)benzyl)hexahydropyrrolo[3,4-c]pyrrole-2(1H)-carboxylate], for which the IC50 on ABHD6 [1] fell in the range of 1000 to 10000 nM; on FAAH [2], 1000 to 10000 nM; on MAGL [3], 100 to 1000 nM.
As for `O=C(ON1C(=O)CCC1=O)N1CC2CN(Cc3ccc(N4CCOCC4)cc3F)CC2C1` (stereo not drawn) [Example 79, 2,5-Dioxopyrrolidin-1-yl 5-(2-fluoro-4-morpholinobenzyl)hexahydropyrrolo[3,4-c]pyrrole-2(1H)-carboxylate], the IC50 at ABHD6 [1], at FAAH [2] and at MAGL [3] was 1000 to 10000 nM throughout.
As for `CC(=O)NC1CN(c2ccc(Cl)cc2CN2CC3CN(C(=O)OC(C(F)(F)F)C(F)(F)F)CC3C2)C1` (stereo not drawn) [Example 7, 1,1,1,3,3,3-Hexafluoropropan-2-yl 5-(2-(3-acetamidoazetidin-1-yl)-5-chlorobenzyl)hexahydropyrrolo[3,4-c]pyrrole-2(1H)-carboxylate], the results for the IC50 at ABHD6 [1], at FAAH [2] and on MAGL [3] were 1000 to 10000 nM, 1000 to 10000 nM and less than 100 nM, respectively.
On to `Cn1cc(CN2CC3CN(C(=O)ON4C(=O)CCC4=O)CC3C2)c(-c2ccccc2)n1` (stereo not drawn) [Example 114, 2,5-Dioxopyrrolidin-1-yl 5-((1-methyl-3-phenyl-1H-pyrazol-4-yl)methyl)hexahydropyrrolo[3,4-c]pyrrole-2(1H)-carboxylate], for which the concentration for half-maximal inhibition (IC50) on ABHD6 [1] was 1000 to 10000 nM; on FAAH [2], greater than 10000 nM; on MAGL [3], 100 to 1000 nM.
Take `O=C(ON1C(=O)CCC1=O)N1CC2CN(Cc3ccc(C(=O)N4CCOCC4)cc3Cl)CC2C1` (stereo not drawn) [Example 163, 2,5-dioxopyrrolidin-1-yl 5-(2-chloro-4-(morpholine-4-carbonyl)benzyl)-hexahydropyrrolo[3,4-c]pyrrole-2(1H)-carboxylate]: the inhibition at 1 µM on MAGL [4], at ABHD6 [5] and on FAAH [6] was less than 25% in each case.
Turning to `CCN1CCN(c2c(C)cccc2CN2CC3CN(C(=O)ON4C(=O)CCC4=O)CC3C2)CC1` (stereo not drawn) [Example 139, 2,5-dioxopyrrolidin-1-yl 5-[[2-(4-ethylpiperazin-1-yl)-3-methylphenyl]methyl]-octahydropyrrolo[3,4-c]pyrrole-2-carboxylate], the inhibition at 1 µM on MAGL [4], at ABHD6 [5] and at FAAH [6] was less than 25% throughout.
For the compound `CC(=O)NC1CCN(c2ccc(Cl)cc2CN2CC3CN(C(=O)OC(C(F)(F)F)C(F)(F)F)CC3C2)CC1` (stereo not drawn) [Example 5, 1,1,1,3,3,3-Hexafluoropropan-2-yl 5-(2-(4-acetamidopiperidin-1-yl)-5-chlorobenzyl)hexahydropyrrolo[3,4-c]pyrrole-2(1H)-carboxylate], the concentration for half-maximal inhibition (IC50) lay within 1000 to 10000 nM at ABHD6 [1], 1000 to 10000 nM at FAAH [2] and 100 to 1000 nM on MAGL [3].
Take `CC(=O)N1CCC(c2nn(C)cc2CN2CC3CN(C(=O)OC(C(F)(F)F)C(F)(F)F)CC3C2)CC1` (stereo not drawn) [Example 52, 1,1,1,3,3,3-Hexafluoropropan-2-yl 5-[[3-(1-acetylpiperidin-4-yl)-1-methyl-1H-pyrazol-4-yl]methyl]-octahydropyrrolo[3,4-c]pyrrole-2-carboxylate]: the inhibition at 1 µM at MAGL [4] was 25 to 75%; on ABHD6 [5] it was less than 25%; on FAAH [6] it was less than 25%.
As to `O=C(ON1C(=O)CCC1=O)N1CC2CN(Cc3ccc(C(=O)N4CCCC4)cc3Cl)CC2C1` (stereo not drawn) [Example 164, 2,5-dioxopyrrolidin-1-yl 5-(2-chloro-4-(pyrrolidine-1-carbonyl)benzyl)-hexahydropyrrolo[3,4-c]pyrrole-2(1H)-carboxylate], the inhibition at 1 µM on MAGL [4] was 25 to 75%; on ABHD6 [5], 25 to 75%; on FAAH [6], less than 25%.
With `O=C(ON1C(=O)CCC1=O)N1CC2CN(Cc3ccc(Cl)cc3N3CCOCC3)CC2C1` (stereo not drawn) [Example 93, 2,5-Dioxopyrrolidin-1-yl 5-[[4-chloro-2-(morpholin-4-yl)phenyl]methyl]-octahydropyrrolo[3,4-c]pyrrole-2-carboxylate], the values for the inhibition at 1 µM on MAGL [4], at ABHD6 [5] and at FAAH [6] were 25 to 75%, 25 to 75% and less than 25%, respectively.
Turning to `CC1COCCN1c1cc(Cl)ccc1CN1CC2CN(C(=O)ON3C(=O)CCC3=O)CC2C1` (stereo not drawn) [Example 95, 2,5-Dioxopyrrolidin-1-yl 5-[[4-chloro-2-(3-methylmorpholin-4-yl)phenyl]methyl]-octahydropyrrolo[3,4-c]pyrrole-2-carboxylate], the inhibition at 1 µM on MAGL [4] is 25 to 75%; on ABHD6 [5], less than 25%; on FAAH [6] it was less than 25%.
